Test results reported in article PMC6934184, “Selective DNA-PKcs inhibition extends the therapeutic index of localized radiotherapy and chemotherapy” (The Journal of Clinical Investigation, 2019).

Molecular target: T1, STK24 (MST3) (Homo sapiens, UniProt Q9Y6E0)
T1 construct: purchased Thermo Fisher Scientific (Life Technologies) SelectScreen
Assay: SelectScreen Z'LYTE
Assay type: biochemical
Summary of the method: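 Percent values come from Thermo SelectScreen profiling of NU5455, combining activity and binding assays. CSF1R was run in Z'LYTE format at Km app ATP, and CAMK1 in Adapta format with ATP listed at 10.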

T1 sequence (Q9Y6E0 whole entry): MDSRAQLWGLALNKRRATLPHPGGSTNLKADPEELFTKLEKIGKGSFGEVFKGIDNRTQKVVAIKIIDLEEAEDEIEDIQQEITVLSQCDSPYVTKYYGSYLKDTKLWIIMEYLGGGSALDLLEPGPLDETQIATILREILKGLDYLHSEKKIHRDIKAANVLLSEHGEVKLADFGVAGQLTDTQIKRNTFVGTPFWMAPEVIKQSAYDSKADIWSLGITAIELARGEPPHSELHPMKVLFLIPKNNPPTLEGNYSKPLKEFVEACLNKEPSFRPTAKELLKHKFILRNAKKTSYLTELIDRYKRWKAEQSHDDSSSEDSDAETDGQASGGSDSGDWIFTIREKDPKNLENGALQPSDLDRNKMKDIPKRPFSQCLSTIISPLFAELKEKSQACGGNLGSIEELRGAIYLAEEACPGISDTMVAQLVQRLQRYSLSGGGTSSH

In the case of `CN(C(=O)CN1CCOCC1)c1ccc2sc3c(-c4cccc5c(=O)cc(N6CC7CCC(C6)O7)oc45)cccc3c2c1` [NU5455], the inhibition at 1 µM is reported as 4.1%.
